Laboratory results reported in PubChem BioAssay (NCI).
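In this assay, cells in 96-well plates receive the compound at five concentrations for 48 hours. Endpoints are linearly interpolated between the surrounding concentrations. GI50 marks 50% less growth. Definition used: TGI = concentration required for complete inhibition of growth.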

Legend:
Assay in all cases: NCI-60 cell line screen, 48 h
786-0 renal = system: 786-0 renal
A498 renal = system: A498 renal
A549 NSCLC = system: A549 NSCLC
ACHN renal = system: ACHN renal
BT-549 breast = system: BT-549 breast
CAKI-1 renal = system: CAKI-1 renal
CCRF-CEM leukemia = system: CCRF-CEM leukemia
COLO 205 colon = system: COLO 205 colon
DU-145 prostate = system: DU-145 prostate
EKVX NSCLC = system: EKVX NSCLC
HCC-2998 colon = system: HCC-2998 colon
HCT-116 colon = system: HCT-116 colon
HCT-15 colon = system: HCT-15 colon
HL-60(TB) leukemia = system: HL-60(TB) leukemia
HOP-62 NSCLC = system: HOP-62 NSCLC
HOP-92 NSCLC = system: HOP-92 NSCLC
HS 578T breast = system: HS 578T breast
HT29 colon = system: HT29 colon
IGROV1 ovarian = system: IGROV1 ovarian
K-562 leukemia = system: K-562 leukemia
KM12 colon = system: KM12 colon
LOX IMVI melanoma = system: LOX IMVI melanoma
M14 melanoma = system: M14 melanoma
MALME-3M melanoma = system: MALME-3M melanoma
MCF7 breast = system: MCF7 breast
MDA-MB-231 breast = system: MDA-MB-231 breast
MDA-MB-435 = system: MDA-MB-435
MDA-N = system: MDA-N
MOLT-4 leukemia = system: MOLT-4 leukemia
NCI-H226 lung = system: NCI-H226 lung
NCI-H23 lung = system: NCI-H23 lung
NCI-H460 lung = system: NCI-H460 lung
NCI-H522 lung = system: NCI-H522 lung
NCI/ADR-RES ovarian = system: NCI/ADR-RES ovarian
OVCAR-3 ovarian = system: OVCAR-3 ovarian
OVCAR-4 ovarian = system: OVCAR-4 ovarian
OVCAR-5 ovarian = system: OVCAR-5 ovarian
OVCAR-8 ovarian = system: OVCAR-8 ovarian
PC-3 prostate = system: PC-3 prostate
RPMI-8226 leukemia = system: RPMI-8226 leukemia
RXF 393 renal = system: RXF 393 renal
SF-268 CNS = system: SF-268 CNS
SF-295 CNS = system: SF-295 CNS
SF-539 CNS = system: SF-539 CNS
SK-MEL-2 melanoma = system: SK-MEL-2 melanoma
SK-MEL-28 melanoma = system: SK-MEL-28 melanoma
SK-MEL-5 melanoma = system: SK-MEL-5 melanoma
SK-OV-3 ovarian = system: SK-OV-3 ovarian
SN12C renal = system: SN12C renal
SNB-19 CNS = system: SNB-19 CNS
SW-620 colon = system: SW-620 colon
T-47D breast = system: T-47D breast
TK-10 renal = system: TK-10 renal
U251 CNS = system: U251 CNS
UACC-257 melanoma = system: UACC-257 melanoma
UACC-62 melanoma = system: UACC-62 melanoma
UO-31 renal = system: UO-31 renal
SNB-75 CNS = system: SNB-75 CNS

COc1ccccc1-c1cc(=O)c2c(C)cc(C)nc2[nH]1
GI50 (786-0 renal): > 100 µM
TGI (786-0 renal): > 100 µM
TGI (A498 renal): > 100 µM
TGI (A549 NSCLC): > 100 µM
TGI (ACHN renal): > 100 µM
TGI (BT-549 breast): > 100 µM
TGI (CAKI-1 renal): > 100 µM
TGI (CCRF-CEM leukemia): > 100 µM
TGI (COLO 205 colon): > 100 µM
TGI (DU-145 prostate): > 100 µM
TGI (EKVX NSCLC): > 100 µM
TGI (HCC-2998 colon): > 100 µM
GI50 (HCT-116 colon): 74.5 µM
TGI (HCT-116 colon): > 100 µM
TGI (HCT-15 colon): > 100 µM
GI50 (HL-60(TB) leukemia): 30.4 µM
TGI (HL-60(TB) leukemia): > 100 µM
TGI (HOP-62 NSCLC): > 100 µM
TGI (HOP-92 NSCLC): 94.4 µM
TGI (HS 578T breast): > 100 µM
TGI (HT29 colon): > 100 µM
TGI (IGROV1 ovarian): > 100 µM
TGI (K-562 leukemia): > 100 µM
TGI (KM12 colon): > 100 µM
TGI (LOX IMVI melanoma): > 100 µM
TGI (M14 melanoma): > 100 µM
TGI (MALME-3M melanoma): > 100 µM
TGI (MCF7 breast): > 100 µM
TGI (MDA-MB-231 breast): > 100 µM
GI50 (MDA-MB-435): 32.1 µM
TGI (MDA-MB-435): > 100 µM
GI50 (MDA-N): 33.2 µM
TGI (MDA-N): > 100 µM
TGI (MOLT-4 leukemia): > 100 µM
TGI (NCI-H226 lung): > 100 µM
TGI (NCI-H23 lung): > 100 µM
GI50 (NCI-H460 lung): 70.1 µM
TGI (NCI-H460 lung): > 100 µM
TGI (NCI-H522 lung): > 100 µM
TGI (NCI/ADR-RES ovarian): > 100 µM
GI50 (OVCAR-3 ovarian): 64.2 µM
TGI (OVCAR-3 ovarian): > 100 µM
TGI (OVCAR-4 ovarian): > 100 µM
TGI (OVCAR-5 ovarian): > 100 µM
TGI (OVCAR-8 ovarian): > 100 µM
GI50 (PC-3 prostate): 48.3 µM
TGI (PC-3 prostate): > 100 µM
TGI (RPMI-8226 leukemia): > 100 µM
TGI (RXF 393 renal): > 100 µM
TGI (SF-268 CNS): > 100 µM
GI50 (SF-295 CNS): 53.1 µM
TGI (SF-295 CNS): > 100 µM
TGI (SF-539 CNS): > 100 µM
TGI (SK-MEL-2 melanoma): > 100 µM
TGI (SK-MEL-28 melanoma): > 100 µM
GI50 (SK-MEL-5 melanoma): 33.7 µM
TGI (SK-MEL-5 melanoma): > 100 µM
TGI (SK-OV-3 ovarian): > 100 µM
TGI (SN12C renal): > 100 µM
TGI (SNB-19 CNS): > 100 µM
TGI (SW-620 colon): > 100 µM
TGI (T-47D breast): > 100 µM
TGI (TK-10 renal): > 100 µM
GI50 (U251 CNS): > 100 µM
TGI (U251 CNS): > 100 µM
TGI (UACC-257 melanoma): > 100 µM
TGI (UACC-62 melanoma): > 100 µM
TGI (UO-31 renal): > 100 µM

O=C1C(Cl)=C(Cl)C(Cl)(Cl)C(Cl)C1(Cl)Cl (configuration not stated)
TGI (786-0 renal): > 100 µM
TGI (A498 renal): 29.8 µM
TGI (A549 NSCLC): 51.3 µM
TGI (ACHN renal): > 100 µM
TGI (BT-549 breast): 54.1 µM
TGI (CCRF-CEM leukemia): 82.7 µM
TGI (COLO 205 colon): 41.2 µM
TGI (DU-145 prostate): > 100 µM
TGI (EKVX NSCLC): 50.9 µM
TGI (HCC-2998 colon): 34.9 µM
TGI (HCT-116 colon): 42.9 µM
TGI (HCT-15 colon): 98.8 µM
TGI (HL-60(TB) leukemia): 58.4 µM
TGI (HOP-62 NSCLC): 76.2 µM
TGI (HOP-92 NSCLC): 59.8 µM
TGI (HS 578T breast): 64.9 µM
TGI (HT29 colon): 71.5 µM
TGI (IGROV1 ovarian): 33.2 µM
TGI (K-562 leukemia): > 100 µM
TGI (KM12 colon): 50.6 µM
TGI (LOX IMVI melanoma): 41.6 µM
TGI (M14 melanoma): 90.8 µM
TGI (MALME-3M melanoma): 49.5 µM
TGI (MCF7 breast): 55 µM
TGI (MDA-MB-231 breast): 44.6 µM
TGI (MDA-MB-435): 59.2 µM
TGI (MDA-N): 66.2 µM
TGI (NCI-H23 lung): 52.9 µM
TGI (NCI-H460 lung): 47.4 µM
TGI (NCI-H522 lung): 32.5 µM
TGI (NCI/ADR-RES ovarian): 64 µM
TGI (OVCAR-3 ovarian): 47.4 µM
TGI (OVCAR-5 ovarian): 58 µM
TGI (OVCAR-8 ovarian): > 100 µM
TGI (PC-3 prostate): 77.1 µM
TGI (RPMI-8226 leukemia): 70.4 µM
TGI (RXF 393 renal): 44.5 µM
TGI (SF-268 CNS): 51.3 µM
TGI (SF-295 CNS): 50.8 µM
TGI (SF-539 CNS): 32.8 µM
TGI (SK-MEL-2 melanoma): 34.3 µM
TGI (SK-MEL-28 melanoma): 62.1 µM
TGI (SK-MEL-5 melanoma): 27.6 µM
TGI (SK-OV-3 ovarian): 74.1 µM
TGI (SN12C renal): 50.6 µM
TGI (SNB-19 CNS): 61 µM
TGI (SNB-75 CNS): 58.6 µM
TGI (SW-620 colon): 54.7 µM
TGI (T-47D breast): 75.9 µM
TGI (TK-10 renal): 65.3 µM
TGI (U251 CNS): 44.6 µM
TGI (UACC-257 melanoma): 44.8 µM
TGI (UACC-62 melanoma): 32.9 µM
TGI (UO-31 renal): 32.7 µM
